# Tests used:
# [1] = target: T1, STK17B (Homo sapiens, UniProt O94768); assay: NanoBRET target engagement in HEK293 cells, STK17B; assay type: cell-based
# T1 sequence (O94768 1-372): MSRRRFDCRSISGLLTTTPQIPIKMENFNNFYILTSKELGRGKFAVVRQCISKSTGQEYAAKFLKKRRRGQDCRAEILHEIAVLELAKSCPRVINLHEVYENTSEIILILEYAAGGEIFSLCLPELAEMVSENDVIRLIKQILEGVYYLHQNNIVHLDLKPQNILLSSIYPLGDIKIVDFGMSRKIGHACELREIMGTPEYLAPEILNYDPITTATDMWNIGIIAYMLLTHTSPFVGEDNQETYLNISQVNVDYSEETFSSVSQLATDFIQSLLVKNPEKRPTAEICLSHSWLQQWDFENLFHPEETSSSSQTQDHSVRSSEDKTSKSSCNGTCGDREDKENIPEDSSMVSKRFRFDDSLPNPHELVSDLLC
# [2] = target: T1, STK17B
# [3] = target: 403 wild type human kinases; assay: DiscoverX KINOMEscan scanMAX panel; assay type: binding; details: for kinases with >75% displacement of the immobilized ligand: scanMAX panel of 403 wild type human kinases at 1 μM
# [4] = Microsomal stability; details: for Microsomal stability (%): % compound remaining in mouse liver microsomes at 30 min
# [5] = system: Tpl2; details: read-out: Tpl2 IC50; Reported by Ni et al; cited from earlier work
# [6] = system: DAPK family; details: read-out: IC50 on the DAPK family; cited from earlier work
# [7] = target: T1, STK17B; details: KinaseSeeker IC50, compared with 4
# [8] = target: T2, STK17A (Homo sapiens, UniProt Q9UEE5); assay: Eurofins enzyme inhibition assay, STK17A; assay type: biochemical
# T2 sequence (Q9UEE5 1-414): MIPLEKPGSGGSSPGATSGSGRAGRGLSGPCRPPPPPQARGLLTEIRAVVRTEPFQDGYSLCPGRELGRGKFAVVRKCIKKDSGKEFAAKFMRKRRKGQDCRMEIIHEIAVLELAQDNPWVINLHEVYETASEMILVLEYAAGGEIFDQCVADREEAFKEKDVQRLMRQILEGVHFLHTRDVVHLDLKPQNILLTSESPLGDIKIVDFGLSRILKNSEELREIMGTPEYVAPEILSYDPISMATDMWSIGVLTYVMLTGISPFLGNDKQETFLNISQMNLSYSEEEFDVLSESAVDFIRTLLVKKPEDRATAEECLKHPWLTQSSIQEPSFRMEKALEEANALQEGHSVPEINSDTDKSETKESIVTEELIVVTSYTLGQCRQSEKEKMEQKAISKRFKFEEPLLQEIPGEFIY
# [9] = target: T1, STK17B; assay: biochemical
# [10] = target: T1, STK17B; assay: DiscoverX KINOMEscan binding, STK17B; details: DiscoverX binding assay
compound,measurement,setting,value
"COc1ccc(-c2cc3ncnc(SCC(=O)O)c3s2)cc1F [Compound 11z, 2-((6-(3-Fluoro-4-methoxyphenyl)thieno[3,2-d]pyrimidin-4-yl)thio)acetic acid]",drop in cell potency,"[1]; NanoBRET, compared with 11y",1.3 fold
"O=C(O)CSc1ncnc2sc(-c3cc4ccccc4s3)cc12 [Compound 19g, 2-((6-(Benzo[b]thiophen-2-yl)thieno[2,3-d]pyrimidin-4-yl)thio)acetic acid]",fold less active as an inhibitor of STK17B than the chemical probe 11s,[2]; 19g compared to 11s (Table 9),> 100 fold
same,kinases with >65% displacement of the immobilized ligand,[3]; scanMAX panel at 1 μM,5
same,kinases with >75% displacement of the immobilized ligand,[3],no kinase
"O=C(O)CSc1ncnc2cc(-c3ccc(N4CCOCC4)cc3)sc12 [Compound 11p, 2-((6-(4-Morpholinophenyl)thieno[3,2-d]pyrimidin-4-yl)thio)acetic acid]",Microsomal stability (%),[4],> 50%
"O=C(O)COc1ncnc2cc(-c3ccc4[nH]ncc4c3)sc12 [Compound 6, reference compound]",IC50,[5],1 µM
CN1CCN(c2ccc3nc(-c4c(N)c5c(F)cccc5[nH]c4=O)[nH]c3c2)CC1 [dovitinib],IC50,[6],1 to 5 µM
"CSc1cccc(-c2cc3ncnc(SCC(=O)O)c3s2)c1 [Compound 11b, 2-((6-(3-(Methylthio)phenyl)thieno[3,2-d]pyrimidin-4-yl)thio)acetic acid]",fold less potent than 4 in the STK17B cell assay,"[1]; NanoBRET IC50, compared with 4",about 2.5 fold
same,fold less potent than 4 in the STK17B binding assay,[7],about 2.5 fold
"CSc1ccc(-c2cc3ncnc(SCC(=O)O)c3s2)cc1 [Compound 4, 2-((6-(4-(Methylthio)phenyl)thieno[3,2-d]pyrimidin-4-yl)thio)acetic acid]",compound consumed in mice liver microsomes,[4]; After 30 minutes,100%
same,IC50,[5],3.4 µM
"O=C(O)CSc1ncnc2cc(-c3cc4ccccc4s3)sc12 [Compound 11s, 2-((6-(Benzo[b]thiophen-2-yl)thieno[3,2-d]pyrimidin-4-yl)thio)acetic acid]",Microsomal stability (%),[4],> 50%
same,selectivity for STK17B over CAMKK2 in cells,[1]; NanoBRET target engagement assays,> 10 fold
same,IC50,[8],5 to 9 µM
same,IC50,[9],0.043 ± 0.0035 µM
same,selectivity over CAMKK1 and CAMKK2,[10],< 10 fold
same,selectivity for STK17B over STK17A,[2]; enzyme assays,> 100 fold
same,selectivity for STK17B over all of the other kinases tested,[2]; enzyme assays,> 100 fold
same,kinases with >75% displacement of the immobilized ligand,[3],Eight
"O=C(O)CSc1ncnc2cc(-c3cccc(N4CCOCC4)c3)sc12 [Compound 11o, 2-((6-(3-Morpholinophenyl)thieno[3,2-d]pyrimidin-4-yl)thio)acetic acid]",Microsomal stability (%),[4],> 50%
"O=C(O)CSc1ncnc2cc(-c3ccc(C4CC4)cc3)sc12 [Compound 11h, 2-((6-(4-Cyclopropylphenyl)thieno[3,2-d]pyrimidin-4-yl)thio)acetic acid]",Microsomal stability (%),[4],> 50%
